Test results from patent US20260076372A1, “SPRAYABLE ANTIFUNGAL COMPOSITION FOR USE IN THE FIELD OF AGRICULTURE, AND ASSOCIATED METHOD AND USE” (GAIAGO, priority 2022, published 2026).

Experiments:
Type in all cases: cell-based
[1] = tested on: Septoria tritici (Zymoseptoria tritici); experiment: in vitro 96-well micro-titration test on Septoria tritici / Zymoseptoria tritici; settings: for EC95 (%): Z. tritici, Table 23, ingredient alone in water
Alternaria solani = experiment: in vitro 96-well micro-titration test on Alternaria solani spores; settings: for EC95 (%): A. solani, Table 22, ingredient alone in water
Plasmopara viticola = experiment: in vitro antifungal action of single ingredients on Plasmopara viticola
Text: In Vitro Results Showing the Syngergistic Action of Yucca Juice with the Other Compounds of the Composition According to the Invention on A. solani, Z. tritici, and Plasmopara viticola,
The following tables show in vitro the synergistic antifungal action between yucca juice and the other compounds of the composition of the invention on various pathogens. The concentrations given are as a mass %. The solutions tested as aqueous solutions.
Mo denotes sodium molybdate, Bo denotes boron ethanolamine.

[2] = Concentration 0.05% mass of the stated aqueous solution

SMILES	inhibition of Z. tritici, ingredient alone in water ([1]; Concentration 0.05%)	inhibition of Z. tritici, ingredient alone in water ([1]; Concentration 0.50%)	inhibition of Z. tritici, ingredient alone in water ([1]; Concentration 1.00%)	inhibition of Z. tritici, ingredient alone in water ([1]; Concentration 2.00%)	inhibition of Z. tritici, ingredient alone in water ([1]; Concentration 3.00%)	inhibition of Z. tritici, ingredient alone in water ([1]; Concentration 6.00%)	inhibition of Z. tritici, ingredient alone in water ([1]; Concentration 10.00%)	EC95 (%) [1]	EC95 (%) (Alternaria solani)	inhibition of A. solani, ingredient alone in water (Alternaria solani; [2])	inhibition of A. solani, ingredient alone in water (Alternaria solani; Concentration 0.50%)	inhibition of A. solani, ingredient alone in water (Alternaria solani; Concentration 1.00%)	inhibition of A. solani, ingredient alone in water (Alternaria solani; Concentration 2.00%)	inhibition of A. solani, ingredient alone in water (Alternaria solani; Concentration 3.00%)	inhibition of A. solani, ingredient alone in water (Alternaria solani; Concentration 6.00%)	inhibition of A. solani, ingredient alone in water (Alternaria solani; Concentration 10.00%)	in vitro activity against Plasmopara viticola, ingredient alone in water (Plasmopara viticola; Concentration 0.05%)	in vitro activity against Plasmopara viticola, ingredient alone in water (Plasmopara viticola; Concentration 0.50%)	in vitro activity against Plasmopara viticola, ingredient alone in water (Plasmopara viticola; Concentration 1.00%)	in vitro activity against Plasmopara viticola, ingredient alone in water (Plasmopara viticola; Concentration 2.00%)	further results
O=S(=O)([O-])[O-].[Cu+2] [Cu 1.5%]	11.9%	17.3%	22.1%	23.6%	20.9%	24.1%	28.2%	>10%	>10%	−2.8%	−1.4%	−1.9%	−1.8%	−4.9%	−1.8%	−2.9%					
O=S(=O)([O-])[O-].[Fe+2] [Fe 4%]	9.8%	37.1%	38.8%	54.9%	100.0%	100.0%	100.0%	2.86%	2.3%	−4.7%	−4.3%	−0.4%	49.6%	100.0%	100.0%	100.0%					efficacy against Z. tritici (glume blotch) in vitro ([1]; dose of 0.5%): ~37%
[Cl-].[K+] [KCl 0.24%]	4.7%	2.2%	1.4%	0.1%	0.3%	7.9%	3.8%	>10%	>10%	1.2%	−3.6%	−3.9%	−8.9%	−1.3%	−1.2%	−2.9%	10.83%	51.35%	69.10%	75.81%	in vitro activity against Plasmopara viticola, ingredient alone in water (Plasmopara viticola; Concentration 3.00%): 83.20%; in vitro activity against Plasmopara viticola, ingredient alone in water (Plasmopara viticola; Concentration 6.00%): 94.91%; in vitro activity against Plasmopara viticola, ingredient alone in water (Plasmopara viticola; Concentration 10.00%): 97.43%
O=S(=O)([O-])[O-].[Mg+2] [Mg 0.5%]	0.7%	0.9%	2.3%	−2.9%	−0.1%	11.3%		>10%	>10%	−1.2%	−8.0%	−2.2%	−1.8%	−1.3%	−2.5%	−2.4%	13.88%	43.93%	53.33%	69.80%	in vitro activity against Plasmopara viticola, ingredient alone in water (Plasmopara viticola; Concentration 3.00%): 76.51%; in vitro activity against Plasmopara viticola, ingredient alone in water (Plasmopara viticola; Concentration 6.00%): 91.75%; in vitro activity against Plasmopara viticola, ingredient alone in water (Plasmopara viticola; Concentration 10.00%): 95.94%
O=S(=O)([O-])[O-].[Mn+2] [Mn 3.7%]	12.9%	13.8%	12.9%	18.6%	20.0%	17.0%	23.1%	>10%	>10%	−2.3%	0.0%	12.8%	15.1%	17.6%	38.8%	48.4%	31.02%	87.05%	94.13%	97.24%	in vitro activity against Plasmopara viticola, ingredient alone in water (Plasmopara viticola; Concentration 3.00%): 97.70%; in vitro activity against Plasmopara viticola, ingredient alone in water (Plasmopara viticola; Concentration 6.00%): 97.72%; in vitro activity against Plasmopara viticola, ingredient alone in water (Plasmopara viticola; Concentration 10.00%): 97.79%
O=S(=O)([O-])[O-].[Mn+2] [Mn 7%]	11.3%	27.6%	33.5%	28.7%	28.0%	29.0%	29.5%	>10%	6.4%	0.0%	16.9%	29.6%	73.2%	89.4%	94.5%	101.1%	25.41%	89.41%	94.78%	97.25%	in vitro activity against Plasmopara viticola, ingredient alone in water (Plasmopara viticola; Concentration 3.00%): 97.53%; in vitro activity against Plasmopara viticola, ingredient alone in water (Plasmopara viticola; Concentration 6.00%): 97.69%; in vitro activity against Plasmopara viticola, ingredient alone in water (Plasmopara viticola; Concentration 10.00%): 97.64%
[Na+].[Na+].[O]=[Mo](=[O])([O-])[O-] [Mo 0.01%, sodium molybdate]	−1.7%	−1.1%	−2.3%	−2.2%	−1.8%	−1.6%	−2.2%	>10%	>10%	2.2%	−1.2%	−7.4%	−1.3%	−1.8%	−1.5%	−0.4%	15.33%	46.43%	53.15%	72.42%	in vitro activity against Plasmopara viticola, ingredient alone in water (Plasmopara viticola; Concentration 3.00%): 74.22%; in vitro activity against Plasmopara viticola, ingredient alone in water (Plasmopara viticola; Concentration 6.00%): 74.22%; in vitro activity against Plasmopara viticola, ingredient alone in water (Plasmopara viticola; Concentration 10.00%): 96.02%
O=S(=O)([O-])[O-].[Zn+2] [Zn 7%]	−4.9%	28.1%	39.8%	44.1%	47.4%	65.0%	77.2%	>10%	>10%	−1.4%	6.3%	16.6%	32.1%	37.2%	49.7%	59.1%	7.02%	50.25%	65.51%	99.08%	in vitro activity against Plasmopara viticola, ingredient alone in water (Plasmopara viticola; Concentration 3.00%): 99.29%; in vitro activity against Plasmopara viticola, ingredient alone in water (Plasmopara viticola; Concentration 6.00%): 98.93%; in vitro activity against Plasmopara viticola, ingredient alone in water (Plasmopara viticola; Concentration 10.00%): 99.08%
